US10214507B2, “Carbazole-containing amides, carbamates, and ureas as cryptochrome modulators” (Reset Therapeutics, Inc., priority 2014, dated 2019)

Test system: stable U20S reporter cells harboring Per2-dLuc
Test: Per2 assay for evaluating the potency of test compounds (circadian luciferase reporter)
Assay type: cell-based
Conditions: amplitude of Per2-dLuc luminescence vs log concentration
In short: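 U2OS Per2-dLuc cells grown 48 h at 37 °C, then synchronized with 5 μM forskolin plus 1 mM luciferin and dosed with 3-fold compound dilutions.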

Row | Compound | EC50
1 | O=C1C(C2CCCC2)CCCN1CC(O)Cn1c2ccc(F)cc2c2cc(F)ccc21 (centres unmarked) [Compound 23, 3-cyclopentyl-1-(3-(3,6-difluoro-9H-carbazol-9-yl)-2-hydroxypropyl)piperidin-2-one] | 399 nM
2 | O=C1COCCN1CC(O)Cn1c2ccc(F)cc2c2cc(F)ccc21 (centres unmarked) [Compound 55, 4-(3-(3,6-difluoro-9H-carbazol-9-yl)-2-hydroxypropyl)morpholin-3-one] | 738 nM
3 | O=C1N(CC(O)Cn2c3ccc(F)cc3c3cc(F)ccc32)CCN1C1CCCCC1 (centres unmarked) [Compound 88, 1-cyclohexyl-3-(3-(3,6-difluoro-9H-carbazol-9-yl)-2-hydroxypropyl)imidazolidin-2-one] | 310 nM
4 | CC1CN(CC(O)Cn2c3ccc(F)cc3c3cc(F)ccc32)C(=O)N1 (centres unmarked) [Compound 85, 1-(3-(3,6-difluoro-9H-carbazol-9-yl)-2-hydroxypropyl)-4-methylimidazolidin-2-one] | 667 nM
5 | CC1CCC(=O)N(CC(O)Cn2c3ccccc3c3ccccc32)C1 (centres unmarked) [Compound 62, 1-(3-(9H-carbazol-9-yl)-2-hydroxypropyl)-5-methylpiperidin-2-one] | 370 nM
6 | CC1CCCC(=O)N1CC(O)Cn1c2ccc(F)cc2c2cc(F)ccc21 (centres unmarked) [Compound 39, 1-(3-(3,6-difluoro-9H-carbazol-9-yl)-2-hydroxypropyl)-6-methylpiperidin-2-one] | 342 nM
7 | CC1CCN(CC(O)Cn2c3ccc(F)cc3c3cc(F)ccc32)C1=O (centres unmarked) [Compound 29, 1-(3-(3,6-difluoro-9H-carbazol-9-yl)-2-hydroxypropyl)-3-methylpyrrolidin-2-one] | 422 nM
8 | C[C@@H]1CCN(C[C@H](O)Cn2c3ccc(F)cc3c3cc(F)ccc32)C1=O [Compound 116, (R)-1-((R)-3-(3,6-difluoro-9H-carbazol-9-yl)-2-hydroxypropyl)-3-methylpyrrolidin-2-one] | 311 nM
9 | O=C1N(CC(O)Cn2c3ccc(F)cc3c3cc(F)ccc32)CCCN1C1CCCCC1 (centres unmarked) [Compound 74, 1-cyclohexyl-3-(3-(3,6-difluoro-9H-carbazol-9-yl)-2-hydroxypropyl)tetrahydropyrimidin-2(1H)-one] | 284 nM
10 | CC(O)(CN1CCCC1=O)Cn1c2ccccc2c2ccccc21 (centres unmarked) [Compound 67, 1-(3-(9H-carbazol-9-yl)-2-hydroxy-2-methylpropyl)pyrrolidin-2-one] | 225 nM
11 | CC1(C)CCN(CC(O)Cn2c3ccc(F)cc3c3cc(F)ccc32)C1=O (centres unmarked) [Compound 15, 1-(3-(3,6-difluoro-9H-carbazol-9-yl)-2-hydroxypropyl)-3,3-dimethylpyrrolidin-2-one] | 164 nM
12 | O=C1NCCCN1CC(O)Cn1c2ccccc2c2ccccc21 (centres unmarked) [Compound 3, 1-(3-(9H-carbazol-9-yl)-2-hydroxypropyl)tetrahydropyrimidin-2(1H)-one] | 299 nM
13 | C[C@](O)(CN1CC[C@@H](F)C1=O)Cn1c2ccccc2c2ccccc21 [Compound 127, (R)-1-((R)-3-(9H-carbazol-9-yl)-2-hydroxy-2-methylpropyl)-3-fluoropyrrolidin-2-one] | 535 nM
14 | CN1CCCN(CC(O)Cn2c3ccccc3c3ccccc32)C1=O (centres unmarked) [Compound 2, 1-(3-(9H-carbazol-9-yl)-2-hydroxypropyl)-3-methyltetrahydropyrimidin-2(1H)-one] | 736 nM
15 | O=C1C(F)CCCN1CC(O)Cn1c2ccccc2c2ccccc21 (centres unmarked) [Compound 70, 1-(3-(9H-carbazol-9-yl)-2-hydroxypropyl)-3-fluoropiperidin-2-one] | 61 nM
16 | O=C1N(CC(O)Cn2c3ccc(F)cc3c3cc(F)ccc32)CCC1(F)F (centres unmarked) [Compound 58, 1-(3-(3,6-difluoro-9H-carbazol-9-yl)-2-hydroxypropyl)-3,3-difluoropyrrolidin-2-one] | 716 nM

Row | Compound | EC50
17 | C[C@@H]1CCC(=O)N(C[C@H](O)Cn2c3ccc(F)cc3c3cc(F)ccc32)C1 [Compound 134, (R)-1-((R)-3-(3,6-difluoro-9H-carbazol-9-yl)-2-hydroxypropyl)-5-methylpiperidin-2-one] | 397 nM
18 | CCC1CC(=O)N(CC(O)Cn2c3ccc(F)cc3c3cc(F)ccc32)C1 (centres unmarked) [Compound 45, 1-(3-(3,6-difluoro-9H-carbazol-9-yl)-2-hydroxypropyl)-4-ethylpyrrolidin-2-one] | 52 nM
19 | C[C@H]1CCC(=O)N(C[C@@H](O)Cn2c3ccccc3c3ccccc32)C1 [Compound 132, (S)-1-((S)-3-(9H-carbazol-9-yl)-2-hydroxypropyl)-5-methylpiperidin-2-one] | 1130 nM
20 | C[C@@H]1CCC(=O)N(C[C@@H](O)Cn2c3ccccc3c3ccccc32)C1 [Compound 133, (R)-1-((S)-3-(9H-carbazol-9-yl)-2-hydroxypropyl)-5-methylpiperidin-2-one] | 838 nM
21 | CC1CCC(=O)N(CC(C)(O)Cn2c3ccc(F)cc3c3cc(F)ccc32)C1 (centres unmarked) [Compound 38, 1-(3-(3,6-difluoro-9H-carbazol-9-yl)-2-hydroxy-2-methylpropyl)-5-methylpiperidin-2-one] | 1220 nM
22 | O=C1NCCN1CC(O)Cn1c2ccccc2c2ccccc21 (centres unmarked) [Compound 84, 1-(3-(9H-carbazol-9-yl)-2-hydroxypropyl)imidazolidin-2-one] | 325 nM
23 | CCN1CCN(CC(O)Cn2c3ccc(F)cc3c3cc(F)ccc32)C1=O (centres unmarked) [Compound 73, 1-(3-(3,6-difluoro-9H-carbazol-9-yl)-2-hydroxypropyl)-3-ethylimidazolidin-2-one] | 1110 nM
24 | CC1CCC(=O)N1CC(O)Cn1c2ccc(F)cc2c2cc(F)ccc21 (centres unmarked) [Compound 34, 1-(3-(3,6-difluoro-9H-carbazol-9-yl)-2-hydroxypropyl)-5-methylpyrrolidin-2-one] | 286 nM
25 | O=C1N(CC(O)Cn2c3ccccc3c3ccccc32)CCN1C1CC1 (centres unmarked) [Compound 97, 1-(3-(9H-carbazol-9-yl)-2-hydroxypropyl)-3-cyclopropylimidazolidin-2-one] | 315 nM
26 | O=C1[C@H]2CC[C@H](C2)N1C[C@H](O)Cn1c2ccccc2c2ccccc21 [Compound 107, (1R,4S)-2-((R)-3-(9H-carbazol-9-yl)-2-hydroxypropyl)-2-azabicyclo[2.2.1]heptan-3-one] | 89 nM
27 | O=C1C(C2CCCCC2)CCCN1CC(O)Cn1c2ccc(F)cc2c2cc(F)ccc21 (centres unmarked) [Compound 20, 3-cyclohexyl-1-(3-(3,6-difluoro-9H-carbazol-9-yl)-2-hydroxypropyl)piperidin-2-one] | 379 nM
28 | CC1CCC(=O)N(CC(O)Cn2c3ccc(F)cc3c3cc(F)ccc32)C1 (centres unmarked) [Compound 37, 1-(3-(3,6-difluoro-9H-carbazol-9-yl)-2-hydroxypropyl)-5-methylpiperidin-2-one] | 224 nM
29 | CC(C)C1CCCN(CC(O)Cn2c3ccc(F)cc3c3cc(F)ccc32)C1=O (centres unmarked) [Compound 25, 1-(3-(3,6-difluoro-9H-carbazol-9-yl)-2-hydroxypropyl)-3-isopropylpiperidin-2-one] | 79 nM
30 | CCN1CCCN(CC(O)Cn2c3ccccc3c3ccccc32)C1=O (centres unmarked) [Compound 95, 1-(3-(9H-carbazol-9-yl)-2-hydroxypropyl)-3-ethyltetrahydropyrimidin-2(1H)-one] | 568 nM
31 | CC(O)(CN1CCCN(C2CCCCC2)C1=O)Cn1c2ccc(F)cc2c2cc(F)ccc21 (centres unmarked) [Compound 82, 1-cyclohexyl-3-(3-(3,6-difluoro-9H-carbazol-9-yl)-2-hydroxy-2-methylpropyl)tetrahydropyrimidin-2(1H)-one] | 1190 nM
32 | O=C1Nc2ccccc2CN1CC(O)Cn1c2ccc(F)cc2c2cc(F)ccc21 (centres unmarked) [Compound 103, 3-(3-(3,6-difluoro-9H-carbazol-9-yl)-2-hydroxypropyl)-3,4-dihydroquinazolin-2(1H)-one] | 940 nM
